{"source": "patent US20250333394A1", "about": "“Tiparp Inhibitor Compounds” (AbbVie Inc., priority 2024, published 2025)", "key": {"TIPARP GST-(TEV)": {"target": "TIPARP GST-(TEV) (Homo sapiens (Human), UniProt Q7Z3E1)", "sequence (Q7Z3E1 441-657)": "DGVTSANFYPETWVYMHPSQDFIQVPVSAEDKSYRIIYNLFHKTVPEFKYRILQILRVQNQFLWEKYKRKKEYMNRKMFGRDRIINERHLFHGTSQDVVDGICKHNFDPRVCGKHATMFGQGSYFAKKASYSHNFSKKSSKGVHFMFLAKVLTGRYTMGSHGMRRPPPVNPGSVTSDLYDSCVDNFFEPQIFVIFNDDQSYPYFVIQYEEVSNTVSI", "test": "TR-FRET binding assay, TIPARP", "how_it_was_run": "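N-terminal GST-TEV-tagged human TIPARP with protein/probe mix in 50 mM Tris-HCl pH 8.0, 5 mM MgCl2, 5 µM ZnCl2, 1 mM DTT, 0.15% BSA, 0.01% Triton X-100, plus 1 nM Tb-anti-GST antibody. Compounds at 30 µM to 0.5 nM final, 3-fold steps. TR-FRET ratio read after 2 h at ambient temperature.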"}, "NCI-H1373 cells": {"tested_on": "NCI-H1373 cells", "test": "NCI-H1373 CellTiter-Glo cell assay for TIPARP inhibition", "type": "cell-based, human", "conditions": "Homo sapiens, NCI-H1373, 144 h; 6 days, 100 nM 10-Cl-BBQ in medium; read-out: NCI-H1373 CTG EC50", "how_it_was_run": "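NCI-H1373 cells (1000/well) grown in RPMI 1640 with 10% FBS and 100 nM 10-Cl-BBQ, exposed to compounds from 30 μM to 0.5 nM final in 3-fold steps for 6 days at 37° C. Cell number read on day 7 by CellTiter-Glo luminescence.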"}, "DLD-1 parent cells": {"tested_on": "DLD-1 parent cells", "test": "CellTiter-Glo DLD-1 parent cell assay", "type": "cell-based", "conditions": "Homo sapiens, 144 h, 6 days, read-out: DLD-1 CTG EC50", "how_it_was_run": "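DLD-1 parent (500 cells/well) and DLD-1 BRCA2 (−/−) (1200 cells/well) cells in RPMI 1640 with 10% FBS exposed to compounds at 30 μM to 0.5 nM (3-fold dilutions) for 6 days at 37° C. Viability read by CellTiter-Glo luminescence on day 7.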"}}}
{"compound": "C[C@@H]1CN(c2ncc(C(F)(F)F)cn2)CCN1C(=O)[C@H]1C[C@@H](c2c[nH]c(=O)c(C(F)(F)F)c2)C1", "note": "[Example 1, 5-[(1S,3s)-3-{(2R)-2-methyl-4-[5-(trifluoromethyl)pyrimidin-2-yl]piperazine-1-carbonyl}cyclobutyl]-3-(trifluoromethyl)pyridin-2(1H)-one]", "values": [{"measurement": "IC50", "setting": "TIPARP GST-(TEV); TR-FRET, Probe 1, 2 hours incubation", "value": 0.0024, "unit": "µM"}, {"measurement": "PARP1/TIPARP IC50 Ratio", "setting": "TIPARP GST-(TEV); ratio of PARP1 GST IC50 to TIPARP GST-(TEV) IC50", "value": 1140}, {"measurement": "EC50", "setting": "NCI-H1373 cells", "value": 0.0172, "unit": "µM"}, {"measurement": "EC50", "setting": "DLD-1 parent cells", "value": "> 30", "unit": "µM"}]}
